# Results: patent US4014999A, “Halo-steroidal thioketals for treating inflammation” (Ortho Pharmaceutical Corporation, priority 1976, dated 1977)
# Test system: left hind paw inflammation in rats with adjuvant arthritis
# Assay: Therapeutic Treatment of Adjuvant Arthritis in Rats (left hind paw inflammation)
# Assay type: in vivo, Carworth Wistar (Lewis) rats
# Procedure: Carworth Wistar (Lewis) rats weighing approximately 200 grams are anesthetized with ether, weighed and their hind paws measured by means of a mercury displacement method. The left hind paw is injected intradermally with heat-killed Mycobacterium tuberculosis in white mineral oil. Measurements of body weight and paw volume are obtained on days 2, 5, 10, 15, 20 and 25. Therapeutic treatment is started on day 15.
# Following the injection with Mycobacterium tuberculosis, a primary inflammation develops immediately in the injected paw. Secondary inflammation of the joints of the other legs and feet, nodules on the tail and red spots on the ears develop about day 10-15. The object of the test is to determine the anti-inflammatory effects of the drug treatments.
# Groups of rats (five rats/group) are treated as follows: One group receives no Mycobacterium tuberculosis and is the negative control group. One group receives Mycobacterium tuberculosis but no anti-inflammatory drug and is the positive control group. Other groups receive Mycobacterium tuberculosis and either oral or topical test compounds or standard anti-inflammatory agents beginning on day 15 and are considered experimental groups. Experimental anti-inflammatory and standard anti-inflammatory compounds are administered either once every five days, i.e., after grading on days 15 and 20, or once/day on days 15-24.
# In the topical studies a measured amount of drug is mixed into about 0.5 ml of SILASTIC* Medical Adhesive (or other appropriate vehicle) and applied to cover the left hind paw. Rats so treated are housed individually to eliminate the removal of the medication by another rat. The following, Tables 1 and 2 illustrate the anti-inflammatory potency and efficacy of the oral and topical treatments.
# [1] = oral, once per day, 0.00375 mg/kg
# [2] = oral, once per day, 0.00750 mg/kg
# [3] = oral, once per day, 0.01500 mg/kg
# [4] = oral, once per day, 0.03000 mg/kg
# [5] = oral, once per day, 0.06250 mg/kg
# [6] = oral, once per day, 0.12500 mg/kg
SMILES,"Percent Inhibition of Left Hind Paw Inflammation (oral, once every five days, 0.075 mg/kg/5 days) [%]","Percent Inhibition of Left Hind Paw Inflammation (oral, once every five days, 0.150 mg/kg/5 days) [%]","Percent Inhibition of Left Hind Paw Inflammation (oral, once every five days, 0.300 mg/kg/5 days) [%]","Percent Inhibition of Left Hind Paw Inflammation (oral, once every five days, 0.625 mg/kg/5 days) [%]","Percent Inhibition of Left Hind Paw Inflammation (oral, once every five days, 1.250 mg/kg/5 days) [%]","Percent Inhibition of Left Hind Paw Inflammation (oral, once every five days, 2.500 mg/kg/5 days) [%]",Percent Inhibition of Left Hind Paw Inflammation [1] [%],Percent Inhibition of Left Hind Paw Inflammation [2] [%],Percent Inhibition of Left Hind Paw Inflammation [3] [%],Percent Inhibition of Left Hind Paw Inflammation [4] [%],Percent Inhibition of Left Hind Paw Inflammation [5] [%],Percent Inhibition of Left Hind Paw Inflammation [6] [%],"Percent Inhibition of Left Hind Paw Inflammation (oral, once per day, 0.25000 mg/kg) [%]","Percent Inhibition of Left Hind Paw Inflammation (topical (in SILASTIC Medical Adhesive), once every five days, 0.300 mg/kg/5 days) [%]","Percent Inhibition of Left Hind Paw Inflammation (topical (in SILASTIC Medical Adhesive), once every five days, 0.625 mg/kg/5 days) [%]","Percent Inhibition of Left Hind Paw Inflammation (topical (in SILASTIC Medical Adhesive), once every five days, 1.250 mg/kg/5 days) [%]","Percent Inhibition of Left Hind Paw Inflammation (topical (in SILASTIC Medical Adhesive), once every five days, 2.500 mg/kg/5 days) [%]"
"CC1(C)O[C@@H]2C[C@H]3[C@@H]4C[C@H](F)C5=CC6(C=C[C@]5(C)[C@@]4(F)[C@@H](O)C[C@]3(C)[C@]2(C(=O)CO)O1)SCCS6 [Compound A, 6α,9-difluoropregna-1,4-diene-11β,16α,17,21-tetrol-3,20-dione-3-ethylenedithioketal-16,17-acetonide]",14.7,15.3,18.1,29.0,35.0,44.3,5,9,43,34,60,83,95,31.1,52.6,57.5,64.5
"CC1(C)O[C@@H]2C[C@H]3[C@@H]4C[C@H](F)C5=CC(=O)C=C[C@]5(C)[C@@]4(F)[C@@H](O)C[C@]3(C)[C@]2(C(=O)CO)O1 [Compound B, fluocinolone acetonide, reference compound]",–,–,–,–,–,–,19,15,32,66,76,64,–,–,–,–,–
